≈ marks a conversion by molar mass, not a printed value.
What was measured:
Type in all cases: cell-based
[1] = system: PSEUDOMONAS AERUGINOSA 5007; test: In vitro antibacterial activity, MIC, BHI agar dilution; conditions: P. aeruginosa 5007, unit assumed
[2] = system: STAPHYLOCOCCUS AUREUS NCTC10649M; test: as above; conditions: S. aureus NCTC10649M, unit assumed
ESCHERICHIA COLI KNK 437 = conditions: E. coli KNK 437; BHI agar; unit assumed
[3] = system: STAPHYLOCOCCUS AUREUS ATCC 6538P; test: In vitro antibacterial activity, MIC, BHI agar dilution; conditions: S. aureus ATCC 6538P, 35-37° C., 20 to 24 hours, unit assumed
[4] = system: PSEUDOMONAS AERUGINOSA K799/61; test: as above; conditions: P. aeruginosa K799/61, unit assumed
[5] = system: STAPHYLOCOCCUS AUREUS A-5278; test: as above; conditions: S. aureus A-5278, unit assumed
[6] = system: STREPTOCOCCUS PYOGENES PIU 2548; test: as above; conditions: S. pyogenes PIU 2548, unit assumed
[7] = system: PSEUDOMONAS AERUGINOSA DPHD-5263; test: as above; conditions: P. aeruginosa DPHD-5263, unit assumed
[8] = system: STAPHYLOCOCCUS AUREUS 1775; test: as above; conditions: S. aureus 1775, unit assumed
ESCHERICHIA COLI SS = test: as above; conditions: E. coli SS, unit assumed
ESCHERICHIA COLI H560 = test: as above; conditions: E. coli H560, unit assumed
[9] = system: STAPHYLOCOCCUS EPIDERMIDIS 3519; conditions: S. epidermidis 3519; BHI agar; unit assumed
EN[…] ATCC 8043 = test: In vitro antibacterial activity, MIC, BHI agar dilution; conditions: E. faecium ATCC 8043, unit assumed
Outline: (§1)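 MIC was read visually as the lowest drug level with no growth, a slight haze or sparsely isolated colonies relative to a compound-free growth control. Organisms were spotted at 1:100 dilution (1:10 for slow-growing strains) onto Brain Heart Infusion agar containing serial compound dilutions and incubated 20 to 24 hours at 35-37° C.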

M[…] ATCC 9341 = test: as above; conditions: M. luteus ATCC 9341, unit assumed
Outline: as §1

M[…] ATCC 4698 = test: as above; conditions: M. luteus ATCC 4698, unit assumed
Outline: as §1

STR[…] 508 = test: as above; conditions: S. agalactiae CMX 508, unit assumed
Outline: as §1

[10] = system: KLEBSIELLA PNEUMONIAE ATCC 8045; test: as above; conditions: K. pneumoniae ATCC 8045, unit assumed
[11] = system: PSEUDOMONAS AERUGINOSA BMH10; test: as above; conditions: P. aeruginosa BMH10, unit assumed
[12] = system: STREPTOCOCCUS PYOGENES EES61; test: as above; conditions: S. pyogenes EES61, unit assumed
[13] = system: PROVIDENCIA STUARTII CMX 640; conditions: P. stuartii CMX 640; BHI agar; unit assumed
[14] = system: PSEUDOMONAS AERUGINOSA DPHD-2862; test: In vitro antibacterial activity, MIC, BHI agar dilution; conditions: P. aeruginosa DPHD-2862, unit assumed
[15] = system: STAPHYLOCOCCUS AUREUS CMX 553; test: as above; conditions: S. aureus CMX 553, unit assumed
PSEUDOMONAS CEPACIA 296I = test: as above; conditions: P. cepacia 296I, unit assumed
CANDIDA ALBICANS CCH 442 = test: as above; conditions: C. albicans CCH 442, unit assumed
[16] = system: STAPHYLOCOCCUS AUREUS CMX 642A; test: as above; conditions: S. aureus CMX 642A, unit assumed
[17] = system: STAPHYLOCOCCUS AUREUS A5177; test: as above; conditions: S. aureus A5177, unit assumed
ESCHERICHIA COLI JUHL = conditions: E. coli JUHL; BHI agar; unit assumed
[18] = system: ENTEROBACTER AEROGENES ATCC 13048; test: In vitro antibacterial activity, MIC, BHI agar dilution; conditions: E. aerogenes ATCC 13048, unit assumed
ESCHERICHIA COLI DC-2 = test: as above; conditions: E. coli DC-2, unit assumed
[19] = system: MYCOBACTERIUM SMEGMATIS ATCC 114; test: as above; conditions: M. smegmatis ATCC 114, unit assumed
[20] = system: STREPTOCOCCUS BOVIS A-5169; test: as above; conditions: S. bovis A-5169, unit assumed
[21] = system: PSEUDOMONAS AERUGINOSA K799/WT; test: as above; conditions: P. aeruginosa K799/WT, unit assumed
[22] = system: STREPTOCOCCUS PYOGENES 930; test: as above; conditions: S. pyogenes 930, unit assumed

Compound: CC[C@H]1OC(=O)[C@H](C)C(=O)[C@H](C)[C@@H](O[C@@H]2O[C@H](C)C[C@H](N(C)C)[C@H]2O)[C@](C)(OC)C[C@@H](C)C2=NC[C@H](CSCc3ccccc3)N3C(=O)O[C@@]1(C)[C@H]3[C@H]2C [Example 66]
- MIC [1]: > 100 µg/mL
- MIC [2]: 0.1 µg/mL (≈ 0.129 µM)
- MIC (ESCHERICHIA COLI KNK 437): 25 µg/mL (≈ 32.3 µM)
- MIC [3]: 0.1 µg/mL (≈ 0.129 µM)
- MIC [4]: 0.39 µg/mL (≈ 0.504 µM)
- MIC [5]: > 100 µg/mL
- MIC [6]: 0.39 µg/mL (≈ 0.504 µM)
- MIC [7]: 100 µg/mL (≈ 129 µM)
- MIC [8]: > 100 µg/mL
- MIC (ESCHERICHIA COLI SS): 0.39 µg/mL (≈ 0.504 µM)
- MIC (ESCHERICHIA COLI H560): 12.5 µg/mL (≈ 16.1 µM)
- MIC [9]: 0.2 µg/mL (≈ 0.258 µM)
- MIC (EN[…] ATCC 8043): 0.02 µg/mL (≈ 0.0258 µM)
- MIC (M[…] ATCC 9341): 0.02 µg/mL (≈ 0.0258 µM)
- MIC (M[…] ATCC 4698): 0.2 µg/mL (≈ 0.258 µM)
- MIC (STR[…] 508): 0.01 µg/mL (≈ 0.0129 µM)
- MIC [10]: > 100 µg/mL
- MIC [11]: 100 µg/mL (≈ 129 µM)
- MIC [12]: 0.01 µg/mL (≈ 0.0129 µM)
- MIC [13]: > 100 µg/mL
- MIC [14]: > 100 µg/mL
- MIC [15]: 0.2 µg/mL (≈ 0.258 µM)
- MIC (PSEUDOMONAS CEPACIA 296I): 100 µg/mL (≈ 129 µM)
- MIC (CANDIDA ALBICANS CCH 442): > 100 µg/mL
- MIC [16]: 0.2 µg/mL (≈ 0.258 µM)
- MIC [17]: 0.1 µg/mL (≈ 0.129 µM)
- MIC (ESCHERICHIA COLI JUHL): 25 µg/mL (≈ 32.3 µM)
- MIC [18]: > 100 µg/mL
- MIC (ESCHERICHIA COLI DC-2): 12.5 µg/mL (≈ 16.1 µM)
- MIC [19]: 0.39 µg/mL (≈ 0.504 µM)
- MIC [20]: 0.01 µg/mL (≈ 0.0129 µM)
- MIC [21]: 100 µg/mL (≈ 129 µM)
- MIC [22]: > 100 µg/mL

Compound: CC[C@H]1OC(=O)[C@H](C)C(=O)[C@H](C)[C@@H](O[C@@H]2O[C@H](C)C[C@H](N(C)C)[C@H]2O)[C@](C)(OC)C[C@@H](C)C2=NC[C@H](Cc3cscn3)N3C(=O)O[C@@]1(C)[C@H]3[C@H]2C [Example 69]
- MIC [1]: > 100 µg/mL
- MIC [2]: 0.2 µg/mL (≈ 0.272 µM)
- MIC (ESCHERICHIA COLI KNK 437): > 100 µg/mL
- MIC [3]: 0.2 µg/mL (≈ 0.272 µM)
- MIC [4]: 0.78 µg/mL (≈ 1.06 µM)
- MIC [5]: > 100 µg/mL
- MIC [6]: 0.39 µg/mL (≈ 0.531 µM)
- MIC [7]: > 100 µg/mL
- MIC [8]: > 100 µg/mL
- MIC (ESCHERICHIA COLI SS): 0.39 µg/mL (≈ 0.531 µM)
- MIC (ESCHERICHIA COLI H560): 50 µg/mL (≈ 68 µM)
- MIC [9]: 0.2 µg/mL (≈ 0.272 µM)
- MIC (EN[…] ATCC 8043): 0.1 µg/mL (≈ 0.136 µM)
- MIC (M[…] ATCC 9341): 0.05 µg/mL (≈ 0.068 µM)
- MIC (M[…] ATCC 4698): 0.2 µg/mL (≈ 0.272 µM)
- MIC (STR[…] 508): 0.02 µg/mL (≈ 0.0272 µM)
- MIC [10]: > 100 µg/mL
- MIC [11]: > 100 µg/mL
- MIC [12]: 0.02 µg/mL (≈ 0.0272 µM)
- MIC [13]: > 100 µg/mL
- MIC [14]: > 100 µg/mL
- MIC [15]: 0.2 µg/mL (≈ 0.272 µM)
- MIC (PSEUDOMONAS CEPACIA 296I): > 100 µg/mL
- MIC (CANDIDA ALBICANS CCH 442): > 100 µg/mL
- MIC [16]: 0.39 µg/mL (≈ 0.531 µM)
- MIC [17]: 0.2 µg/mL (≈ 0.272 µM)
- MIC (ESCHERICHIA COLI JUHL): 100 µg/mL (≈ 136 µM)
- MIC [18]: > 100 µg/mL
- MIC (ESCHERICHIA COLI DC-2): 50 µg/mL (≈ 68 µM)
- MIC [19]: 3.1 µg/mL (≈ 4.22 µM)
- MIC [20]: 0.01 µg/mL (≈ 0.0136 µM)
- MIC [21]: > 100 µg/mL
- MIC [22]: > 100 µg/mL

Compound: C=CCN1CC2N=C3[C@H](C)C[C@@](C)(OC)[C@H](O[C@@H]4O[C@H](C)C[C@H](N(C)C)[C@H]4O)[C@@H](C)C(=O)[C@@H](C)C(=O)O[C@H](CC)[C@@]4(C)OC(=O)N(C2C1)[C@@H]4[C@H]3C (some centres unmarked) [Example 116]
- MIC [1]: > 100 µg/mL
- MIC [2]: 0.39 µg/mL (≈ 0.542 µM)
- MIC (ESCHERICHIA COLI KNK 437): > 100 µg/mL
- MIC [3]: 0.78 µg/mL (≈ 1.08 µM)
- MIC [4]: 3.1 µg/mL (≈ 4.31 µM)
- MIC [5]: > 100 µg/mL
- MIC [6]: 0.78 µg/mL (≈ 1.08 µM)
- MIC [7]: > 100 µg/mL
- MIC [8]: > 100 µg/mL
- MIC (ESCHERICHIA COLI SS): 0.39 µg/mL (≈ 0.542 µM)
- MIC (ESCHERICHIA COLI H560): 50 µg/mL (≈ 69.5 µM)
- MIC [9]: 0.78 µg/mL (≈ 1.08 µM)
- MIC (EN[…] ATCC 8043): 0.2 µg/mL (≈ 0.278 µM)
- MIC (M[…] ATCC 9341): 0.2 µg/mL (≈ 0.278 µM)
- MIC (M[…] ATCC 4698): 0.39 µg/mL (≈ 0.542 µM)
- MIC (STR[…] 508): 0.05 µg/mL (≈ 0.0695 µM)
- MIC [10]: > 100 µg/mL
- MIC [11]: 100 µg/mL (≈ 139 µM)
- MIC [13]: > 100 µg/mL
- MIC [14]: > 100 µg/mL
- MIC [15]: 0.78 µg/mL (≈ 1.08 µM)
- MIC (PSEUDOMONAS CEPACIA 296I): > 100 µg/mL
- MIC (CANDIDA ALBICANS CCH 442): > 100 µg/mL
- MIC [16]: 0.78 µg/mL (≈ 1.08 µM)
- MIC [17]: 0.78 µg/mL (≈ 1.08 µM)
- MIC (ESCHERICHIA COLI JUHL): 50 µg/mL (≈ 69.5 µM)
- MIC [18]: > 100 µg/mL
- MIC (ESCHERICHIA COLI DC-2): 100 µg/mL (≈ 139 µM)
- MIC [19]: 1.56 µg/mL (≈ 2.17 µM)
- MIC [20]: ≤ 0.005 µg/mL
- MIC [21]: > 100 µg/mL
- MIC [22]: > 100 µg/mL
